This passage reports Emax and EC50 results from US20250230155A1 (Vanderbilt University, priority 2021, published 2025).

Usually Emax stands for the greatest response seen or fitted, relative to the assay's reference. As usually defined, the EC50 is the concentration at which the effect is half-maximal.

The target of the assay is T1, human mAChR M4 (Homo sapiens, UniProt P08173).
T1 construct: expressed in transfected cells
T1 sequence (P08173 1-479): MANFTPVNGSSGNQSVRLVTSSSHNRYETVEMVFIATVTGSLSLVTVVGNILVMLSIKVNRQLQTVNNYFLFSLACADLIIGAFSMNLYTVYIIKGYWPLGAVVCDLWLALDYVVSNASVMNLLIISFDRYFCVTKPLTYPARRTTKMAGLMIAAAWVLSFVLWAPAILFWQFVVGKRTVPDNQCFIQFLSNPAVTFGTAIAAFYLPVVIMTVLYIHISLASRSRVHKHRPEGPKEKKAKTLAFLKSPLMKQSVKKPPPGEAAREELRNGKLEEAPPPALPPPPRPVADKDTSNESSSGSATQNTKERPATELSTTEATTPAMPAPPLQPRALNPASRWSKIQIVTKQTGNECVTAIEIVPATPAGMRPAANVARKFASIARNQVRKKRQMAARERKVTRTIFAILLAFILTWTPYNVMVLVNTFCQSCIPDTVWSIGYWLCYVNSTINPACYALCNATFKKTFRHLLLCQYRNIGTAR
As to the kind of experiment: mAChR M4 cell-based functional assay (calcium mobilization, CHO-K1 hM4-Gqi5 cells). Particulars: for EC50: increase in the EC20 acetylcholine response, CHO-K1 hM4-Gqi5 cells; for Emax at 30 µM: CHO-K1, % ACh maximum at 30 μM. In a few lines: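 CHO-K1 cells stably expressing human M4 with chimeric Gqi5, loaded with Fluo-4 AM; compounds given as 11-point 1:3 curves and calcium flux read on FDSS at 1 Hz. Acetylcholine EC20 added at 144 s, EC80 at 230 s; agonist, PAM (EC20 potentiation) and antagonist (EC80 inhibition) EC50/Emax from four-parameter fits.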
In general terms: Calcium assays in cells follow changes in intracellular calcium, usually with a dye or a luminescent sensor.

Where [1] appears, read: positive allosteric modulator activity, read-out: Human M4 EC50.

Read-outs that look alike come from different tables or passages of the source.

Turning to `Cc1cc(C#N)cnc1N1Cc2cc(N3CCOCC3)cnc2C(C)C1` (single isomer, unassigned) [Example 406, 5-methyl-6-(8-methyl-3-morpholino-7,8-dihydro-1,6-naphthyridin-6(5H)-yl)nicotinonitrile], the Emax (% ACh maximum at 30 μM, human M4) was determined as 96%. Also, the concentration giving a half-maximal response (EC50) under setting [1] is 326 nM.

Regarding `Cc1cc(C(=O)NC23CC(F)(C2)C3)cnc1N1CCc2ncc(-c3cn(C)nc3C)cc2C1` [Example 477, 6-(3-(1,3-dimethyl-1H-pyrazol-4-yl)-7,8-dihydro-1,6-naphthyridin-6(5H)-yl)-N-(3-fluorobicyclo[1.1.1]pentan-1-yl)-5-methylnicotinamide], the Emax at 30 µM (human M4) came to 80%. Also, under setting [1], the concentration giving a half-maximal response (EC50) was determined as 2470 nM.

Consider `Cc1nc2c(c(N3CCc4ncc(C(F)(F)F)cc4C3)n1)CCC2` [compound 267, 6-(2-methyl-6,7-dihydro-5H-cyclopenta[d]pyrimidin-4-yl)-3-(trifluoromethyl)-5,6,7,8-tetrahydro-1,6-naphthyridine], for which, under setting [1], the half-maximal effective concentration (EC50) stood at 1030 nM.

On to `Cc1cc(C#N)cnc1N1CCc2ncc(N3CCCn4nccc43)cc2C1` [Example 314, 6-(3-(6,7-dihydropyrazolo[1,5-a]pyrimidin-4(5H)-yl)-7,8-dihydro-1,6-naphthyridin-6(5H)-yl)-5-methylnicotinonitrile], for which, under “human M4”, the Emax at 30 µM was found to be 94%. Further, the EC50 under setting [1] turned out to be 26 nM.

As to `Cc1c(C#N)nnc(N2CCc3ncc(-c4cccnc4C(F)(F)F)cc3C2)c1C` [compound 50, 4,5-dimethyl-6-[3-[2-(trifluoromethyl)-3-pyridyl]-7,8-dihydro-5H-1,6-naphthyridin-6-yl]pyridazine-3-carbonitrile], under “human M4”, the Emax at 30 µM is 68%. Besides, the EC50 under setting [1] worked out at 1790 nM.

On to `Cc1cc(C(=O)NCc2ccc(Cl)nc2)cnc1N1CCc2ncc(-c3cn(C)nc3C)cc2C1` [Example 481, N-((6-chloropyridin-3-yl)methyl)-6-(3-(1,3-dimethyl-1H-pyrazol-4-yl)-7,8-dihydro-1,6-naphthyridin-6(5H)-yl)-5-methylnicotinamide], for which the Emax at 30 µM (human M4) amounted to 58%. Besides, the EC50 under setting [1] was 1060 nM.

For the molecule `Cc1cc(C(=O)NCc2ccncc2)cnc1N1CCc2ncc(C(F)(F)F)cc2C1` [Example 444, 5-methyl-N-(pyridin-4-ylmethyl)-6-(3-(trifluoromethyl)-7,8-dihydro-1,6-naphthyridin-6(5H)-yl)nicotinamide], the Emax at 30 µM (human M4) worked out at 100%. The concentration for a half-maximal effect (EC50) under setting [1] is 196 nM.

In the case of `Cc1cc(C#N)cnc1N1CCc2ncc(-c3ccnc(F)c3)cc2C1` [Example 340, 6-(3-(2-fluoropyridin-4-yl)-7,8-dihydro-1,6-naphthyridin-6(5)-yl)-5-methylnicotinonitrile], the Emax at 30 µM (human M4) worked out at 81%. Besides, the concentration giving a half-maximal response (EC50) under setting [1] amounted to 7550 nM.

`Cc1cc(C#N)cnc1N1CCc2ncc(-c3cnn(C4CCCCC4)c3)cc2C1` [compound 99, 6-[3-(1-cyclohexylpyrazol-4-yl)-7,8-dihydro-5H-1,6-naphthyridin-6-yl]-5-methyl-pyridine-3-carbonitrile]: the maximum response (Emax) at 30 µM (human M4) turned out to be 57%. Besides, the EC50 under setting [1] came to 740 nM.

In the case of `Cc1cc(C#N)cnc1N1CCc2ncc(-c3cnn(CC4CC4)c3)cc2C1` [compound 102, 6-[3-[1-(cyclopropylmethyl)pyrazol-4-yl]-7,8-dihydro-5H-1,6-naphthyridin-6-yl]-5-methyl-pyridine-3-carbonitrile], the Emax at 30 µM (human M4) was found to be 86%. Besides, the EC50 under setting [1] came to 362 nM.

Consider `Cc1cc(C#N)cnc1N1CCc2ncc(Nc3ccncc3F)cc2C1` [Example 599, 6-(3-((3-fluoropyridin-4-yl)amino)-7,8-dihydro-1,6-naphthyridin-6(5H)-yl)-5-methylnicotinonitrile], for which the Emax at 30 µM (human M4) is 96%. For the same molecule, under setting [1], the concentration for a half-maximal effect (EC50) came out at 7 nM.

On to `Cc1cc(C#N)cnc1N1CCc2ncc(N3CCO[C@H](c4ccccc4)C3)cc2C1` [Example 375, (R)-5-methyl-6-(3-(2-phenylmorpholino)-7,8-dihydro-1,6-naphthyridin-6(5H)-yl)nicotinonitrile], for which the Emax at 30 µM (human M4) was 85%. Besides, under setting [1], the EC50 was found to be 1320 nM.

`Cc1cc(C(=O)NCc2ccncc2)cnc1N1CCc2ncc(-c3cn(C)nc3C)cc2C1` [Example 482, 6-(3-(1,3-dimethyl-1H-pyrazol-4-yl)-7,8-dihydro-1,6-naphthyridin-6(5H)-yl)-5-methyl-N-(pyridin-4-ylmethyl)nicotinamide]: the maximum response (Emax) at 30 µM (human M4) came out at 78%. Also, the EC50 under setting [1] worked out at 468 nM.

In the case of `Cc1cc(C#N)cnc1N1CCc2ncc(C3CC3)cc2C1` [Example 330, 6-(3-cyclopropyl-7,8-dihydro-1,6-naphthyridin-6(5H)-yl)-5-methylnicotinonitrile], the Emax (CHO-K1) stood at 85%. The EC50 (Human M4 EC50, positive allosteric modulator activity) was determined as 71 nM.

With `Cc1cc(C(=O)NCc2cncs2)nnc1N1CCc2ncc(C(F)(F)F)cc2C1` [Example 492, 5-methyl-N-(thiazol-5-ylmethyl)-6-(3-(trifluoromethyl)-7,8-dihydro-1,6-naphthyridin-6(5H)-yl)pyridazine-3-carboxamide], under “human M4”, the maximal effect (Emax) at 30 µM was determined as 110%. Further, the 50% effective concentration (EC50) under setting [1] is 17 nM.

Take `Cc1cc(C(=O)N2CC(C)(F)C2)nnc1N1CCc2ncc(N3CCCn4nccc43)cc2C1` [Example 546, (6-(3-(6,7-dihydropyrazolo[1,5-a]pyrimidin-4(5H)-yl)-7,8-dihydro-1,6-naphthyridin-6(5H)-yl)-5-methylpyridazin-3-yl)(3-fluoro-3-methylazetidin-1-yl)methanone]: where the note is “human M4”, the maximum response (Emax) at 30 µM was found to be 116%. Further, the concentration for a half-maximal effect (EC50) under setting [1] is 16 nM.

For `Cc1nc(Cl)c(C)c(N2CCc3ncc(C(F)(F)F)cc3C2)n1` [compound 200, 6-(6-chloro-2,5-dimethyl-pyrimidin-4-yl)-3-(trifluoromethyl)-7,8-dihydro-5H-1,6-naphthyridine], the maximal response (Emax) at 30 µM (human M4) was 96%. Besides, the concentration giving a half-maximal response (EC50) under setting [1] came to 128 nM.

With `Cc1c(C#N)nnc(N2CCc3ncc(Nc4ccncc4F)cc3C2)c1C` [Example 613, 6-(3-((3-fluoropyridin-4-yl)amino)-7,8-dihydro-1,6-naphthyridin-6(5H)-yl)-4,5-dimethylpyridazine-3-carbonitrile], the Emax at 30 µM (human M4) was 97%. Besides, under setting [1], the concentration giving a half-maximal response (EC50) was determined as 3 nM.

Take `Cc1cc(C#N)cnc1N1CCc2ncc(N3CCCc4ncccc43)cc2C1` [Example 362, 6-(3-(3,4-dihydro-1,5-naphthyridin-1(2H)-yl)-7,8-dihydro-1,6-naphthyridin-6(5H)-yl)-5-methylnicotinonitrile]: where the note is “human M4”, the Emax at 30 µM was 96%. Also, under setting [1], the half-maximal effective concentration (EC50) amounted to 76 nM.

Consider `Cc1cc(C(=O)Nc2ccncc2)cnc1N1CCc2ncc(C(F)(F)F)cc2C1` [Example 442, 5-methyl-N-(pyridin-4-yl)-6-(3-(trifluoromethyl)-7,8-dihydro-1,6-naphthyridin-6(5H)-yl)nicotinamide], for which the Emax at 30 µM (human M4) is 96%. The half-maximal effective concentration (EC50) under setting [1] was found to be 424 nM.

On to `Cc1cc(C(=O)NC2CN(CC(F)(F)F)C2)nnc1N1CCc2ncc(N3CCCn4nccc43)cc2C1` [Example 520, 6-(3-(6,7-dihydropyrazolo[1,5-a]pyrimidin-4(5H)-yl)-7,8-dihydro-1,6-naphthyridin-6(5H)-yl)-5-methyl-N-(1-(2,2,2-trifluoroethyl)azetidin-3-yl)pyridazine-3-carboxamide], for which the Emax at 30 µM (human M4) came to 104%. The EC50 under setting [1] came out at 43 nM.
